Counter-ions that a name gives are not always drawn.
Assays:
[1] = molecular target: PARP1 (Homo sapiens, UniProt P09874); assay: PARP1 fluorescence polarization binding assay; details: binding IC50, GST-tagged PARP1 20 nM, PARPi-FL 3 nM
Method: Compounds of the present disclosure were tested in a PARP1 fluorescence polarization binding assay at Pharmaron (Beijing, P.R.China). In this biochemical assay, binding of test compound to recombinant human PARP1 reduces the amount of binding of a fluorescent probe, and consequently reduces the detected level of fluorescence polarization. Test compound stock solutions were prepared in DMSO and then serially diluted into 10 concentrations by 3-fold dilution in a 384-well plate using a TECAN EVO200. 60 nL of each dilution was transferred to the plate using an Echo550 (Labcyte), and then 10 μL 40 nM GST-tagged PARP1 (BPS Bioscience, Cat #80501), diluted in assay buffer (50 mM Tris pH 8.0, 0.001% Triton X-100, 10 mM MgCl2, 150 mM NaCl), was added to the plate. After a centrifugation at 1000 rpm for 1 min, the assay plate was incubated for 30 min at RT. 10 μL 6 nM PARPi-FL (TOCRIS, Cat #6461), diluted using assay buffer, was then added to the plate. The final concentrations of PARP1 and PARPi-FL were 20 nM and 3 nM, respectively, in a total volume of 20 μL. After a centrifugation at 1000 rpm for 1 min, the assay plate was incubated for 4 h at RT. Samples in each well were read using an Envision instrument (Perkin-Elmer; Ex=480 nm Em=FITC FP-P pol 535 nm & FITC FP-S pol 535 nm). Percent inhibition was calculated from mP values using Inhibition (%)=[1−(mPc−mPL)/(mPH−mPL)]×100%, where mPc, mPL, and mPH are the mP values of test compound, Low controls, and High controls, respectively. Binding IC50 values were calculated using XLFit (equation 201: y=A+((B−A)/(1+((x/C)^D))), where A=bottom, B=top, C=IC50, and D=slope) with a floating top and bottom for curves. Binding IC50 values are shown in Table A and are presented in ranges, in which “+++”<100 nM, 100 nM≤“++”<3000 nM, and “+”≥3000 nM.

[2] = molecular target: recombinant human PARP2 (Homo sapiens, UniProt Q9UGN5); assay: PARP2 fluorescence polarization binding assay; details: for inhibition at 10 µM: read-out: PARP2 % inh at 10 μM; for IC50: binding IC50, GST-tagged PARP2 20 nM, PARPi-FL 3 nM
Chain of recombinant human PARP2 (Q9UGN5 whole entry): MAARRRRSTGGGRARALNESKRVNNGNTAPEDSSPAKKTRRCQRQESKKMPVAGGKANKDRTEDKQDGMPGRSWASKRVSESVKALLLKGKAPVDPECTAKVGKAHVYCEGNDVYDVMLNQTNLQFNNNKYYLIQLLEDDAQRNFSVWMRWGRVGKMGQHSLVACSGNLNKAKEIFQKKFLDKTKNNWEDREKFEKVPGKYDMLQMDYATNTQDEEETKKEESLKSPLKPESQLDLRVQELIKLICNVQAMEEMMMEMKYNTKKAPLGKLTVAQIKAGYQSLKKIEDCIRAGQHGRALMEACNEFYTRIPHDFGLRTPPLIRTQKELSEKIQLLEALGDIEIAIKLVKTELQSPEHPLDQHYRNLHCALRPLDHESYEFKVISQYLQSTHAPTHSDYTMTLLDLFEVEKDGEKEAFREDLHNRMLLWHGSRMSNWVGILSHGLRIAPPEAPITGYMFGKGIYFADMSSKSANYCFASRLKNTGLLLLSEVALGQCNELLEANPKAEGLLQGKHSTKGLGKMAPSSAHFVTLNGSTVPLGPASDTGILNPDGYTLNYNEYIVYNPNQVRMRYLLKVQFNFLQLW
Method: Compounds of the present disclosure were tested in a PARP2 fluorescence polarization binding assay at Pharmaron (Beijing, P.R. China). In this biochemical assay, binding of test compound to recombinant human PARP2 reduces the amount of binding of a fluorescent probe, and consequently reduces the detected level of fluorescence polarization. Test compound stock solutions were prepared in DMSO and then serially diluted into 10 concentrations by 3-fold dilution in a 384-well plate using a TECAN EVO200. Alternatively, a single concentration was prepared. 60 nL of each dilution was transferred to the plate using an Echo550 (Labcyte), and then 10 μL 40 nM GST-tagged PARP2 (BPS Bioscience, Cat #80502), diluted in assay buffer (50 mM Tris pH 8.0, 0.001% Triton X-100, 10 mM MgCl2, 150 mM NaCl), was added to the plate. After a centrifugation at 1000 rpm for 1 min, the assay plate was incubated for 30 min at RT. 10 μL 6 nM PARPi-FL (TOCRIS, Cat #6461), diluted using assay buffer, was then added to the plate. […] After a centrifugation at 1000 rpm for 1 min, the assay plate was incubated for 4 h at RT. Samples in each well were read using an Envision instrument (Perkin-Elmer; Ex=480 nm Em=FITC FP-P pol 535 nm & FITC FP-S pol 535 nm). […] Binding IC50 values were calculated using XLFit (equation 201: […])^D))), where A=bottom, B=top, C=IC50, and D=slope) with a floating top and bottom for curves.

[3] = test system: DLD-1 BRCA2(−/−) colorectal adenocarcinoma cells; assay: Cell viability assay (Cell Titer-Glo), DLD-1 BRCA2(−/−); type: cell-based; details: Homo sapiens, DLD-1, 168 h; 7 days incubation, 200 cells/well
Method: (§1) Compounds of the present disclosure were tested for their effects on the viability of cancer cells. DLD-1 wild-type and DLD-1 BRCA2(−/−) colorectal adenocarcinoma cells, an isogenic pair of cell lines differing in the presence and absence, respectively, of both BRCA2 alleles, were used. The cells were harvested during the logarithmic growth period, counted, and seeded at 50 cells/well for DLD-1 wild-type and 200 cells/well for DLD-1 BRCA2(−/−) in a 384-well cell culture plate. After seeding, cells were incubated at 37° C., 5% CO2 overnight. Cells were treated with serially diluted test compounds at 10 concentrations (e.g., from 1.5 nM-30 μM) for generation of dose response curves, or at a single concentration. The plate was further incubated for another 7 days in a humidified incubator at 37° C. and 5% CO2. Cell viability was assessed by luminescence measurement after addition of Cell Titer-Glo reagent (Promega, Madison, Wis.) according to the manufacturer's instructions. Cell viability IC50 values were calculated using XLFit, equation 201: y=A+((B−A)/(1+((x/C)^D))), where A=bottom, B=top, C=IC50, and D=slope. IC50 values are shown in Table B and are presented in ranges, in which “+++”<300 nM, 300 nM≤“++”<3000 nM, and “+”≥3000 nM. Values for percent inhibition at 10 μM are also shown in Table B and are presented in ranges, in which “***”≥67%, 33%≤“**”<67%, and “*”<33%. Effects of the test compounds on the viability of other cell lines such as MDA-MB-436, MDA-MB-231, SUM149PT, HCC1395, and UWB1.289 are determined in an analogous method.

[4] = test system: DLD-1 wild-type colorectal adenocarcinoma cells; assay: Cell viability assay (Cell Titer-Glo), DLD-1 wild-type; type: cell-based; details: Homo sapiens, DLD-1, 168 h, 7 days incubation; for inhibition at 10 µM: read-out: DLD-1 wild-type % inh at 10 μM; for IC50: 50 cells/well
Method: as §1

Chain of PARP1 (P09874 whole entry): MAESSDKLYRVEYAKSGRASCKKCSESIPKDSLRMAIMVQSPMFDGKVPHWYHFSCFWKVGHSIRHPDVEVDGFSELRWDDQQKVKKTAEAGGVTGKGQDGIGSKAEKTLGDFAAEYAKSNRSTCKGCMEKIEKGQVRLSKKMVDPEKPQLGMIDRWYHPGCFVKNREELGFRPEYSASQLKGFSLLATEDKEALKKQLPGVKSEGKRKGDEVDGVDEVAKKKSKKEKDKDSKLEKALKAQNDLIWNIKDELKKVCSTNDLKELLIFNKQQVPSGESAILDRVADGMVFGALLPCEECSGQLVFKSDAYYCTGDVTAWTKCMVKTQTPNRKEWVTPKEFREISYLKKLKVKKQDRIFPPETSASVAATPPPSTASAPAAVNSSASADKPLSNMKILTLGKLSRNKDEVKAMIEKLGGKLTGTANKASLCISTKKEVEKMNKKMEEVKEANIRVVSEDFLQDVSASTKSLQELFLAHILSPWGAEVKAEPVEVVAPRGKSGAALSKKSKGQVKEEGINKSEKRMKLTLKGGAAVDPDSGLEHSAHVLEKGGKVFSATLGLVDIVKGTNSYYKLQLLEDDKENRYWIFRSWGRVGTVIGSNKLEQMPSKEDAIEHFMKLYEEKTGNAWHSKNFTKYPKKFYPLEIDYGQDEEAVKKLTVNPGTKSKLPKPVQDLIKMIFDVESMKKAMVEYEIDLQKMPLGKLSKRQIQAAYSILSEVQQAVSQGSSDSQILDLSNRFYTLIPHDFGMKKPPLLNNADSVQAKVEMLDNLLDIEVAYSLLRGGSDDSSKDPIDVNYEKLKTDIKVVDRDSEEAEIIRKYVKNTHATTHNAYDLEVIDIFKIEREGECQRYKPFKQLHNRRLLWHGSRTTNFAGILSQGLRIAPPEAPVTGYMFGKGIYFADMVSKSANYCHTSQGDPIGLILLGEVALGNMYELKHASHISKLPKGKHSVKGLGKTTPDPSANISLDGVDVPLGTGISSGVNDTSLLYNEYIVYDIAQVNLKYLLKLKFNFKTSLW

Row | Compound | IC50 [1] [nM] | inhibition at 10 µM [2] [%] | IC50 [2] [nM] | IC50 [4] [nM] | IC50 [3] [nM] | inhibition at 10 µM [4] [%]
1 | CNC(=O)c1ccc(N2CCN(Cc3ccc4c(=O)[nH]c(=O)[nH]c4c3)CC2)cn1 [Compound 1, 5-(4-((2,4-dioxo-1,2,3,4-tetrahydroquinazolin-7-yl)methyl)piperazin-1-yl)-N-methylpicolinamide formate] | 100 to 3000 | 33 to 67 |  |  |  | 
2 | CCn1c(=O)[nH]c2cc(CN3CCN(c4ccc(C(=O)NC)nc4)CC3)ccc2c1=S [Compound 40, 5-(4-((3-ethyl-2-oxo-4-thioxo-1,2,3,4-tetrahydroquinazolin-7-yl)methyl)piperazin-1-yl)-N-methylpicolinamide formate] | < 100 | 33 to 67 | > 3000 | > 3000 | 300 to 3000 | < 33
3 | CCn1c(=O)[nH]c2sc(CN3CCN(c4ccc(C(=O)NC)nc4)CC3)cc2c1=O [Compound 60, 5-(4-((3-ethyl-2,4-dioxo-1,2,3,4-tetrahydrothieno[2,3-d]pyrimidin-6-yl)methyl)piperazin-1-yl)-N-methylpicolinamide formate] | 100 to 3000 | 33 to 67 |  |  | > 3000 | < 33
4 | CCn1c(=O)[nH]c2cc(CN3CCN(c4ccc(C(=O)NC)nc4)CC3)sc2c1=O [Compound 86, 5-(4-((3-ethyl-2,4-dioxo-1,2,3,4-tetrahydrothieno[3,2-d]pyrimidin-6-yl)methyl)piperazin-1-yl)-N-methylpicolinamide formate] | < 100 | 33 to 67 | > 3000 |  | < 300 | < 33
5 | CCn1c(=O)[nH]c2cc(CN3CCN(c4ccc(C(=O)NC)nc4C)CC3=O)sc2c1=O [Compound 305, 5-(4-((3-ethyl-2,4-dioxo-1,2,3,4-tetrahydrothieno[3,2-d]pyrimidin-6-yl)methyl)-3-oxopiperazin-1-yl)-N,6-dimethylpicolinamide] | < 100 |  |  |  |  | 
6 | CCn1c(=O)[nH]c2cc(CN3CCN(c4ccc(-n5cccn5)nc4C)CC3)sc2c1=O [Compound 306, 3-ethyl-6-({4-[2-methyl-6-(pyrazol-1-yl)pyridin-3-yl]piperazin-1-yl}methyl)-1H-thieno[3,2-d]pyrimidine-2,4-dione] | < 100 |  |  |  |  | 
7 | CCn1c(=O)[nH]c2cc(CN3CC(Oc4ccc(C(=O)NC)nc4C)C3)sc2c1=O [Compound 328] | 100 to 3000 |  |  |  |  | 
8 | CCn1c(=O)[nH]c2cc(CN3CCN(c4ccc(-c5ncc[nH]5)nc4C)CC3)sc2c1=O [Compound 357, 64(4-(6-(1H-imidazol-2-yl)-2-methylpyridin-3-yl)piperazin-1-yl) methyl)-3-ethylthieno[3,2-d]pyrimidine-2,4(1H,3H)-dione formate] | < 100 |  |  |  |  | 
9 | CCn1c(=O)[nH]c2cc(CN3CCN(c4ccc(C(=O)N5CCCC5)nc4C)CC3)sc2c1=O [Compound 526, 3-ethyl-6-[(4-{2-methyl-6-[(pyrrolidin-1-yl)carbonyl]pyridin-3-yl}piperazin-1-yl)methyl]-1H-thieno[3,2-d]pyrimidine-2,4-dione] | > 3000 |  |  |  |  | 

Continued, in another order:

Row | IC50 [1] [nM] | inhibition at 10 µM [2] [%] | IC50 [2] [nM] | IC50 [4] [nM] | Compound | IC50 [3] [nM] | inhibition at 10 µM [4] [%]
10 | < 100 | 33 to 67 | > 3000 | > 3000 | CNC(=O)c1ccc(N2CCN(Cc3ccc4c(=O)n(C)c(=O)[nH]c4c3)CC2)cn1 [Compound 2] | 300 to 3000 | < 33
11 | < 100 | 33 to 67 | > 3000 | > 3000 | CNC(=O)c1ccc(N2CCN(Cc3ccc4c(=O)n(C(C)C)c(=O)[nH]c4c3)CC2)cn1 [Compound 4, 5-(4-((3-isopropyl-2,4-dioxo-1,2,3,4-tetrahydroquinazolin-7-yl)methyl)piperazin-1-yl)-N-methylpicolinamide] | > 3000 | 33 to 67
12 | < 100 | 33 to 67 | > 3000 | > 3000 | CNC(=O)c1ccc(N2CCN(Cc3ccc4c(=O)n(C5CC5)c(=O)[nH]c4c3)CC2)cn1 [Compound 5, 5-(4-((3-cyclopropyl-2,4-dioxo-1,2,3,4-tetrahydroquinazolin-7-yl)methyl)piperazin-1-yl)-N-methylpicolinamide] | > 3000 | < 33
13 | < 100 | 33 to 67 | > 3000 |  | CCn1c(=O)[nH]c2cc(C(=O)N3CCN(c4ccc(C(=O)NC)nc4)CC3)ccc2c1=O [Compound 130, 5-(4-(3-ethyl-2,4-dioxo-1,2,3,4-tetrahydroquinazoline-7-carbonyl)piperazin-1-yl)-N-methylpicolinamide] |  | 
14 | < 100 |  |  |  | CCn1c(=O)[nH]c2sc(CN3CCN(c4ccc(C(=O)NC)nc4C)CC3)cc2c1=O [Compound 186] |  | 
15 | 100 to 3000 | 33 to 67 | > 3000 |  | CCn1c(=O)[nH]c2cc(CN3CCN(c4ccc(C(=O)NC#N)nc4C)CC3)sc2c1=O [Compound 313, N-cyano-5-(4-((3-ethyl-2,4-dioxo-1,2,3,4-tetrahydrothieno[3,2-d]pyrimidin-6-yl)methyl)piperazin-1-yl)-6-methylpicolinamide, ammonia salt] |  | 
16 | < 100 |  |  |  | CCn1c(=O)[nH]c2cc(CN3CCN(c4ccc(NC(C)=O)nc4C)CC3)sc2c1=O [Compound 528, N-(5-(4-((3-ethyl-2,4-dioxo-1,2,3,4-tetrahydrothieno[3,2-d]pyrimidin-6-yl)methyl)piperazin-1-yl)-6-methylpyridin-2-yl)acetamide] |  | 
17 | > 3000 |  |  |  | CCn1c(=O)[nH]c2cc(CN3CCN(c4ccc(CNC)nc4C)CC3)sc2c1=O [Compound 529, 3-ethyl-6-((4-(2-methyl-6-((methylamino)methyl)pyridin-3-yl)piperazin-1-yl)methyl)thieno[3,2-d]pyrimidine-2,4(1H,3H)-dione] |  | 
18 | < 100 |  |  |  | CCn1c(=O)[nH]c2sc(CN3CCN(c4ccc(C(=O)NC)nc4F)CC3)cc2c1=O [Compound 530, 5-(4-((3-ethyl-2,4-dioxo-1,2,3,4-tetrahydrothieno[2,3-d]pyrimidin-6-yl)methyl)piperazin-1-yl)-6-fluoro-N-methylpicolinamide bis formate] |  | 
19 | < 100 |  |  |  | CCn1c(=O)[nH]c2cc(CN3CCN(c4ccc(C#N)cn4)CC3)sc2c1=O [Compound 531] |  | 
